Drawing on patent US11590139B2, “Substituted aminopurine compounds, compositions thereof, and methods of treatment therewith” (Signal Pharmaceuticals, LLC, priority 2014, dated 2023), this text covers IC50 for 27 molecules.

Some results are limits rather than exact numbers.

For one test, the system named is Lox-IMVI melanoma cell line. Put plainly: Lox-IMVI anti-proliferative assay (growth inhibition, Cell Titer-Glo). The test is classed as cell-based, human. The note with it: Homo sapiens; IC50 activity level in the cell-based Lox-IMVI anti-proliferative assay; read-out: Activity. In short, it runs like this: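 RPMI/10% FBS; cmpd 0.5 nM–10 μM, 3-fold ×10, duplicate, 0.2% DMSO final; 72 h, 37 °C, 5% CO2. ATP-luminescence readout at t0 and 72 h. IC50 = 50% of DMSO control, 4-parameter logistic fit.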
Regarding `NC(=O)[C@H]1CC[C@@H](n2c(Nc3c(F)cccc3F)nc3cnc(N[C@H]4CCOC[C@H]4F)nc32)CC1` [Example 305, (1R,4s)-4-(8-(2,6-difluorophenylamino)-2-((3S,4S)-3-fluorotetrahydro-2H-pyran-4-ylamino)-9H-purin-9-yl)cyclohexanecarboxamide], the IC50 was in the range of 0.5 to 1 µM. Consider `C[C@@H](CO)Nc1ncc2nc(Nc3c(F)cccc3F)n([C@H]3CC[C@@H](C(N)=O)CC3)c2n1` [Example 167, (1R,4s)-4-(8-(2,6-difluorophenylamino)-2-((S)-1 hydroxypropan-2-ylamino)-9H-purin-9-yl)cyclohexanecarboxamide], for which the IC50 was more than 1 µM. On the same count and under the same terms, with `NC(=O)[C@H]1CC[C@@H](n2c(Nc3c(Cl)cc(F)cc3Cl)nc3cnc(NC4CCC4)nc32)CC1` [Example 118, (1s,4s)-4-(2-(cyclobutylamino)-8-(2,6-dichloro-4-fluorophenylamino)-9H-purin-9-yl)cyclohexanecarboxamide] the figure was 0.5 to 1 µM; with `NC(=O)[C@H]1CC[C@@H](n2c(Nc3ccc(Cl)cc3F)nc3cnc(NC4CCOCC4)nc32)CC1` [Example 60, (1s,4s)-4-(8-(4-chloro-2-fluorophenylamino)-2-(tetrahydro-2H-pyran-4-ylamino)-9H-purin-9-yl)cyclohexanecarboxamide], 0.5 to 1 µM. Same read-out and setting: for `NC(=O)[C@H]1CC[C@@H](n2c(Nc3c(F)cccc3Cl)nc3cnc(N[C@@H]4CCC[C@H](O)C4)nc32)CC1` [Example 350, (1S,4s)-4-(8-(2-chloro-6-fluorophenylamino)-2-((1R,3S)-3-hydroxycyclohexylamino)-9H-purin-9-yl)cyclohexanecarboxamide] the value was 0.5 to 1 µM; for `C[C@@H]1CC[C@@H](Nc2ncc3nc(Nc4c(F)cc(F)cc4Cl)n([C@H]4CC[C@@H](C(N)=O)CC4)c3n2)C[C@H]1O` [Example 344, (1S,4s)-4-(8-(2-chloro-4,6-difluorophenylamino)-2-((1R,3R,4R)-3-hydroxy-4-methylcyclohexylamino)-9H-purin-9-yl)cyclohexanecarboxamide], more than 1 µM; for `NC(=O)[C@H]1CC[C@@H](n2c(Nc3c(Cl)cc(Cl)cc3Cl)nc3cnc(N[C@H]4CCOC[C@H]4F)nc32)CC1` [Example 303, (1R,4s)-4-(2-((3S,4S)-3-fluorotetrahydro-2H-pyran-4-ylamino)-8-(2,4,6-trichlorophenylamino)-9H-purin-9-yl)cyclohexanecarboxamide], less than 0.25 µM.

The same test, now with this note: Homo sapiens; Lox-IMVI anti-proliferative assay, IC50 activity level; read-out: Activity.
For the molecule `C[C@@H](CO)Nc1ncc2nc(Nc3c(F)cc(Cl)cc3F)n([C@H]3CC[C@@](C)(C(N)=O)CC3)c2n1` [Example 550, (1R,4s)-4-(8-(4-chloro-2,6-difluorophenylamino)-2-((S)-1-hydroxypropan-2-ylamino)-9H-purin-9-yl)-1-methylcyclohexanecarboxamide], the IC50 was less than 0.25 µM. The same measure, in the same setting: for `C[C@]1(C(N)=O)CC[C@H](n2c(Nc3c(Cl)cc(C#N)cc3Cl)nc3cnc(NC4CCCC4)nc32)CC1` [Example 485, (1r,4r)-4-(2-(cyclopentylamino)-8-(2,6-dichloro-4-cyanophenylamino)-9H-purin-9-yl)-1-methylcyclohexanecarboxamide] the value was 0.5 to 1 µM; for `NC(=O)[C@H]1CC[C@@H](n2c(Nc3c(F)cc(F)cc3F)nc3cnc(NC4CCCOCC4)nc32)CC1` (stereo partly drawn) [Example 536, (1s,4s)-4-(2-(oxepan-4-ylamino)-8-(2,4,6-trifluorophenylamino)-9H-purin-9-yl)cyclohexanecarboxamide], 0.5 to 1 µM. On the same count and under the same terms, for `NC(=O)[C@H]1CC[C@@H](n2c(Nc3c(Cl)cc(OC(F)(F)F)cc3Cl)nc3cnc(NC4CCCC4)nc32)CC1` [Example 597, (1s,4s)-4-(2-(cyclopentylamino)-8-(2,6-dichloro-4-(trifluoromethoxy)phenylamino)-9H-purin-9-yl)cyclohexanecarboxamide] the value was more than 1 µM. On the same count and under the same terms, for `NC(=O)[C@H]1CC[C@@H](n2c(Nc3c(F)cccc3F)nc3cnc(N[C@@H]4CCC[C@@H](O)C4)nc32)CC1` [Example 419, (1S,4s)-4-(8-(2,6-difluorophenylamino)-2-((1R,3R)-3-hydroxycyclohexylamino)-9H-purin-9-yl)cyclohexanecarboxamide] the value was more than 1 µM; for `C[C@H]1COCC[C@H]1Nc1ncc2nc(Nc3c(Cl)cc(C#N)cc3Cl)n([C@H]3CC[C@@H](C(N)=O)CC3)c2n1` [Example 497, (1S,4s)-4-(8-(2,6-dichloro-4-cyanophenylamino)-2-((3R,4R)-3-methyltetrahydro-2H-pyran-4-ylamino)-9H-purin-9-yl)cyclohexanecarboxamide], less than 0.25 µM; for `COC(=O)N1CCCC(Nc2ncc3nc(Nc4c(F)cc(Cl)cc4Cl)n([C@H]4CC[C@@H](C(N)=O)CC4)c3n2)C1` (stereo partly drawn) [Example 412, (R)-methyl 3-(9-((1s,4S)-4-carbamoylcyclohexyl)-8-(2,4-dichloro-6-fluorophenylamino)-9H-purin-2-ylamino)piperidine-1-carboxylate], 0.25 to 0.5 µM. On to `C[C@]1(C(N)=O)CC[C@@H](n2c(Nc3c(Cl)cc(F)cc3Cl)nc3cnc(NC4CC(F)(F)C4)nc32)CC1` [Example 582, (1s,4s)-4-(8-(2,6-dichloro-4-fluorophenylamino)-2-(3,3-difluorocyclobutylamino)-9H-purin-9-yl)-1-methylcyclohexanecarboxamide], for which the IC50 was less than 0.25 µM. Still for that read-out and setting: for `C[C@]1(C(N)=O)CC[C@H](n2c(Nc3c(F)cc(F)cc3F)nc3cnc(NC4CCCC4)nc32)CC1` [Example 494, (1r,4r)-4-(2-(cyclopentylamino)-8-(2,4,6-trifluorophenylamino)-9H-purin-9-yl)-1-methylcyclohexanecarboxamide] the value was more than 1 µM.

Still in this test, the particulars now being: Homo sapiens; Lox-IMVI melanoma cell line, anti-proliferative assay; read-out: Activity (IC50 activity level).
`NC(=O)[C@H]1CC[C@@H](n2c(Nc3c(F)cc(F)cc3Cl)nc3cnc(N[C@@H]4CCCN(Cc5ccccc5)C4)nc32)CC1` [Example 751, (1S,4s)-4-(2-((R)-1-benzylpiperidin-3-ylamino)-8-(2-chloro-4,6-difluorophenylamino)-9H-purin-9-yl)cyclohexanecarboxamide]: the IC50 was more than 1 µM. For `CS(=O)(=O)C1CC(Nc2ncc3nc(Nc4c(Cl)cc(Cl)cc4Cl)n([C@H]4CC[C@@H](C(N)=O)CC4)c3n2)C1` (stereo partly drawn) [Example 729, (1s,4s)-4-(2-(3-(methylsulfonyl)cyclobutylamino)-8-(2,4,6-trichlorophenylamino)-9H-purin-9-yl)cyclohexanecarboxamide], the IC50 was more than 1 µM. With `CS(=O)(=O)N1CCC[C@@H](Nc2ncc3nc(Nc4c(Cl)cc(Cl)cc4Cl)n([C@H]4CC[C@@H](C(N)=O)CC4)c3n2)C1` [Example 700, (1S,4s)-4-(2-((R)-1-(methylsulfonyl)piperidin-3-ylamino)-8-(2,4,6-trichlorophenylamino)-9H-purin-9-yl)cyclohexanecarboxamide], the IC50 fell in the range of 0.5 to 1 µM. On the same count and under the same terms, with `N#Cc1cc(Cl)c(Nc2nc3cnc(N[C@@H]4CCOC[C@H]4F)nc3n2[C@H]2CC[C@@H](C(N)=O)CC2)c(Cl)c1` [Example 762, (1S,4s)-4-(8-(2,6-dichloro-4-cyanophenylamino)-2-((3S,4R)-3-fluorotetrahydro-2H-pyran-4-ylamino)-9H-purin-9-yl)cyclohexanecarboxamide] the figure was less than 0.25 µM. Turning to `N#Cc1cc(Cl)c(Nc2nc3cnc(N[C@H]4CCC[C@H](O)C4)nc3n2[C@H]2CC[C@@H](C(N)=O)CC2)c(Cl)c1` [Example 688, (1R,4s)-4-(8-(2,6-dichloro-4-cyanophenylamino)-2-((1S,3S)-3-hydroxycyclohexylamino)-9H-purin-9-yl)cyclohexanecarboxamide], the IC50 is 0.25 to 0.5 µM.

Consider `CC(C)OC(=O)N1CCC[C@@H](Nc2ncc3nc(Nc4c(F)cc(F)cc4Cl)n([C@H]4CC[C@@H](C(N)=O)CC4)c3n2)C1` [Example 767, (R)-isopropyl 3-(9-((1s,4S)-4-carbamoylcyclohexyl)-8-(2-chloro-4,6-difluorophenylamino)-9H-purin-2-ylamino)piperidine-1-carboxylate], for which the IC50 was more than 1 µM. On to `CC(C)OC(=O)N1CCC[C@@H](Nc2ncc3nc(Nc4c(Cl)cc(C(F)(F)F)cc4Cl)n([C@H]4CC[C@@H](C(N)=O)CC4)c3n2)C1` [Example 770, (R)-isopropyl 3-(9-((1s,4S)-4-carbamoylcyclohexyl)-8-(2,6-dichloro-4-(trifluoromethyl)phenylamino)-9H-purin-2-ylamino)piperidine-1-carboxylate], for which the IC50 is more than 1 µM.

Consider `NC(=O)[C@H]1CC[C@@H](n2c(Nc3c(Cl)cc(Cl)cc3Cl)nc3cnc(N[C@@H]4CCCN(C(=O)Nc5ccccc5)C4)nc32)CC1` [Example 779, (R)-3-(9-((1s,4S)-4-carbamoylcyclohexyl)-8-(2,4,6-trichlorophenylamino)-9H-purin-2-ylamino)-N-phenylpiperidine-1-carboxamide], for which the IC50 is 0.5 to 1 µM. With `C[C@]1(C(N)=O)CC[C@@H](n2c(Nc3c(F)cc(Cl)cc3Cl)nc3cnc(N[C@H]4CCOC[C@H]4F)nc32)CC1` [Example 716, (1R,4s)-4-(8-(2,4-dichloro-6-fluorophenylamino)-2-((3S,4S)-3-fluorotetrahydro-2H-pyran-4-ylamino)-9H-purin-9-yl)-1-methylcyclohexanecarboxamide], the IC50 is less than 0.25 µM. On the same count and under the same terms, with `CCN1CCC[C@@H](Nc2ncc3nc(Nc4c(Cl)cc(C#N)cc4Cl)n([C@H]4CC[C@@H](C(N)=O)CC4)c3n2)C1` [Example 733, (1S,4s)-4-(8-(2,6-dichloro-4-cyanophenylamino)-2-((R)-1-ethylpiperidin-3-ylamino)-9H-purin-9-yl)cyclohexanecarboxamide] the figure was more than 1 µM; with `N#Cc1cc(F)c(Nc2nc3cnc(N[C@@H]4CCCN(Cc5ccccc5)C4)nc3n2[C@H]2CC[C@@H](C(N)=O)CC2)c(F)c1` [Example 755, (1S,4s)-4-(2-((R)-1-benzylpiperidin-3-ylamino)-8-(4-cyano-2,6-difluorophenylamino)-9H-purin-9-yl)cyclohexanecarboxamide], more than 1 µM.
